Emax data for five molecules are collected here from patent US12281149B2, “Modulators of G-protein coupled receptors” (priority 2021, dated 2025).

One assay deals with GLP-1 receptor (Homo sapiens, UniProt P43220). In words: HitHunter cAMP assay, GLP-1 receptor. Particulars: CHO cells, cAMP; normalized to maximum signal from GLP-1 (high) and DMSO (low); read-out: Emax GLP-1R. The assay is classed as cell-based.
Another assay concerns the target T1, GIP receptor (Homo sapiens, UniProt P48546).
T1 sequence (P48546 22-466): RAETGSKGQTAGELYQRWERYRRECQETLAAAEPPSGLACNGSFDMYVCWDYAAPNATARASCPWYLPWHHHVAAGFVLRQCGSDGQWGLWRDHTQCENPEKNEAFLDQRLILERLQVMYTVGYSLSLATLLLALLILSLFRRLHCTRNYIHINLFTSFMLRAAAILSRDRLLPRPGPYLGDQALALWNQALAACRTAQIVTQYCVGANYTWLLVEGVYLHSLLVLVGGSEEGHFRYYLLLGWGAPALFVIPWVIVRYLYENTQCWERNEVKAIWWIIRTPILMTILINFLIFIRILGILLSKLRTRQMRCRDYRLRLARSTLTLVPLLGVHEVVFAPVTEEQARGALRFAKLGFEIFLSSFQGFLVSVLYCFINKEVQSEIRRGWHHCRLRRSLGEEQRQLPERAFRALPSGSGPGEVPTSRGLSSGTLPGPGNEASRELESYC
Briefly: HitHunter cAMP assay, GIP receptor. The assay is classed as cell-based. To be noted: CHO cells, cAMP; normalized to maximum signal from GIP (high) and DMSO (low); read-out: Emax GIP-1R.

*1 amine or outer side, *2 acyl side, *3 side chain or, on linkers, in order; H or OH if unused. Where a SMILES comes first, the peptide text is derived from it. Side-chain parts run from the residue outwards. [ ]: non-standard residue; d: D form. The star is where a group is joined. C20 diacid = O=C(O)CCCCCCCCCCCCCCCCCCC(=O)*; γGlu = O=C(O)[C@H](CCC(=O)[*:2])N[*:1]; X27 = O=C1CC(C(=O)*)(c2ccccc2)CN1; X40 = CC(C)(C(=O)*)n1cc(Cl)cn1; X83 = Cc1ccn(C(C)(C)C(=O)*)n1; X24 = O=C(C1(c2cccnc2)CCC1)*; AEEA = NCCOCCOCC(=O)O; Aib = CC(C)(N)C(=O)O; GABA = NCCCC(=O)O; βAla = NCCC(=O)O

Chain of GLP-1 receptor (P43220 24-463): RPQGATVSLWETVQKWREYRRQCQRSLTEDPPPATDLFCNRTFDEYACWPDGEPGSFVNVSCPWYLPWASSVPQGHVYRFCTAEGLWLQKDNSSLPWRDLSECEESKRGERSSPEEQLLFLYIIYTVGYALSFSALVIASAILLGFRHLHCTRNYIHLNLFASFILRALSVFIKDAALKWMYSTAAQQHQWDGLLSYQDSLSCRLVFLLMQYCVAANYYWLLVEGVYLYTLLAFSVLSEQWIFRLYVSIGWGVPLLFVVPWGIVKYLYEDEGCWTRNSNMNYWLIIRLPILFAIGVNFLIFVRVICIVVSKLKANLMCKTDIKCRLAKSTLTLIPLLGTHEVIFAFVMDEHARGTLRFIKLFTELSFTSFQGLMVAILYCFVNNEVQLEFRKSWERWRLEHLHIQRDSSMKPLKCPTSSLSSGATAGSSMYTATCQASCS
Method for GIP receptor: CAMP accumulation was measured in Chinese hamster ovary (CHO) cells stably expressing the human GLP-1 receptor or GIP receptor using the HitHunter CAMP Assay for Small Molecules Kit (Eurofins). Briefly, cells were grown in Ham's F12 Nutrient Mix with 10% FBS and lifted with Cell dissociation buffer, Enzyme free, PBS based (ThermoFisher). Cells were pelleted and resuspended in Hank's buffered saline solution with 10 mM Hepes and 625 μM 3-isobutyl-1-methylxanthine. The antibody reagent was then added to cells at a 1:2 ratio and 5 μL of mixture was seeded in 384-well small volume white assay plates, at 10,000 cells/well. Cells were then treated with 50 nl compound in DMSO using an ECHO 550 acoustic dispenser (Labcyte) in a 20-point dose response format in triplicate for 30 min. Cells were the lysed and detection reagents added according to the manufacturer's protocol. After overnight incubation, luminescence was measured using a Perkin Elmer Envision plate reader. Raw data was normalized to the maximum signal from GLP-1 or GIP (high) and DMSO (low). Dose response curves were analyzed using GraphPad Prism 9.0.

For the molecule `CC[C@H](C)[C@H](NC(=O)[C@H](CC(C)C)NC(=O)[C@H](Cc1c[nH]c2ccccc12)NC(=O)[C@H](CCC(N)=O)NC(=O)[C@@H](NC(=O)[C@H](Cc1ccccc1)NC(=O)[C@H](C)NC(=O)[C@H](CCCCNC(=O)COCCOCCNC(=O)COCCOCCNC(=O)CC[C@H](NC(=O)CCCCCCCCCCCCCCCCCCC(=O)O)C(=O)O)NC(=O)[C@H](CCC(N)=O)NC(=O)[C@H](C)NC(=O)[C@@H](NC(=O)[C@H](CCCCN)NC(=O)[C@H](CC(=O)O)NC(=O)[C@H](CC(C)C)NC(=O)C(C)(C)NC(=O)[C@@H](NC(=O)[C@H](CO)NC(=O)[C@H](Cc1ccc(O)cc1)NC(=O)[C@H](CC(=O)O)NC(=O)[C@H](CO)NC(=O)[C@@H](NC(=O)[C@H](Cc1ccccc1)NC(=O)[C@@H](NC(=O)CNC(=O)[C@H](CCC(=O)O)NC(=O)CCCNC(=O)C(C)(C)n1cc(Cl)cn1)[C@@H](C)O)[C@@H](C)O)[C@@H](C)CC)[C@@H](C)CC)C(C)C)C(=O)N[C@@H](C)C(=O)NCC(=O)NCC(=O)N1CCC[C@H]1C(=O)N[C@@H](CO)C(=O)N[C@@H](CO)C(=O)NCC(=O)N[C@@H](C)C(=O)N1CCC[C@H]1C(=O)N1CCC[C@H]1C(=O)N1CCC[C@H]1C(=O)N[C@@H](CO)C(N)=O` [Compound 248] ({X40-GABA}-EGTFTSDYSI[Aib]LDKIAQK([AEEA-AEEA-γGlu-C20 diacid])AFVQWLIAGGPSSGAPPPS-NH2; C-terminus assumed), the Emax (as a rule, the maximal effect, on the per cent scale that the assay sets) amounted to 90% on GLP-1 receptor and 104% on GIP receptor.
The like results for `CC[C@H](C)[C@H](NC(=O)[C@H](CC(C)C)NC(=O)[C@H](Cc1c[nH]c2ccccc12)NC(=O)[C@H](CCC(N)=O)NC(=O)[C@@H](NC(=O)[C@H](Cc1ccccc1)NC(=O)[C@H](C)NC(=O)[C@H](CCCCNC(=O)COCCOCCNC(=O)COCCOCCNC(=O)CC[C@H](NC(=O)CCCCCCCCCCCCCCCCCCC(=O)O)C(=O)O)NC(=O)[C@H](CCC(N)=O)NC(=O)[C@H](C)NC(=O)[C@@H](NC(=O)[C@H](CCCCN)NC(=O)[C@H](CC(=O)O)NC(=O)[C@H](CC(C)C)NC(=O)C(C)(C)NC(=O)[C@@H](NC(=O)[C@H](CO)NC(=O)[C@H](Cc1ccc(O)cc1)NC(=O)[C@H](CC(=O)O)NC(=O)[C@H](CO)NC(=O)[C@@H](NC(=O)[C@H](Cc1ccccc1)NC(=O)[C@@H](NC(=O)CNC(=O)[C@H](CCC(=O)O)NC(=O)CCCNC(=O)C1(c2ccccc2)CNC(=O)C1)[C@@H](C)O)[C@@H](C)O)[C@@H](C)CC)[C@@H](C)CC)C(C)C)C(=O)N[C@@H](C)C(=O)NCC(=O)NCC(=O)N1CCC[C@H]1C(=O)N[C@@H](CO)C(=O)N[C@@H](CO)C(=O)NCC(=O)N[C@@H](C)C(=O)N1CCC[C@H]1C(=O)N1CCC[C@H]1C(=O)N1CCC[C@H]1C(=O)N[C@@H](CO)C(N)=O` (stereo partly shown) [Compound 249] ({X27-GABA}-EGTFTSDYSI[Aib]LDKIAQK([AEEA-AEEA-γGlu-C20 diacid])AFVQWLIAGGPSSGAPPPS-NH2; C-terminus assumed) were, in that order, 97% and 104%.
In the same order, the values of `CC[C@H](C)[C@H](NC(=O)[C@H](CC(C)C)NC(=O)[C@H](Cc1c[nH]c2ccccc12)NC(=O)[C@H](CCC(N)=O)NC(=O)[C@@H](NC(=O)[C@H](Cc1ccccc1)NC(=O)[C@H](C)NC(=O)[C@H](CCCCNC(=O)COCCOCCNC(=O)COCCOCCNC(=O)CC[C@H](NC(=O)CCCCCCCCCCCCCCCCCCC(=O)O)C(=O)O)NC(=O)[C@H](CCC(N)=O)NC(=O)[C@H](C)NC(=O)[C@@H](NC(=O)[C@H](CCCCN)NC(=O)[C@H](CC(=O)O)NC(=O)[C@H](CC(C)C)NC(=O)C(C)(C)NC(=O)[C@@H](NC(=O)[C@H](CO)NC(=O)[C@H](Cc1ccc(O)cc1)NC(=O)[C@H](CC(=O)O)NC(=O)[C@H](CO)NC(=O)[C@@H](NC(=O)[C@H](Cc1ccccc1)NC(=O)[C@@H](NC(=O)CNC(=O)[C@H](CCC(=O)O)NC(=O)CCNC(=O)C1(c2ccccc2)CNC(=O)C1)[C@@H](C)O)[C@@H](C)O)[C@@H](C)CC)[C@@H](C)CC)C(C)C)C(=O)N[C@@H](C)C(=O)NCC(=O)NCC(=O)N1CCC[C@H]1C(=O)N[C@@H](CO)C(=O)N[C@@H](CO)C(=O)NCC(=O)N[C@@H](C)C(=O)N1CCC[C@H]1C(=O)N1CCC[C@H]1C(=O)N1CCC[C@H]1C(=O)N[C@@H](CO)C(N)=O` (stereo partly shown) [Compound 250] ({X27-βAla}-EGTFTSDYSI[Aib]LDKIAQK([AEEA-AEEA-γGlu-C20 diacid])AFVQWLIAGGPSSGAPPPS-NH2; C-terminus assumed) are 90% and 89%.
As to `CC[C@H](C)[C@H](NC(=O)[C@H](CC(C)C)NC(=O)[C@H](Cc1c[nH]c2ccccc12)NC(=O)[C@H](CCC(N)=O)NC(=O)[C@@H](NC(=O)[C@H](Cc1ccccc1)NC(=O)[C@H](C)NC(=O)[C@H](CCCCNC(=O)COCCOCCNC(=O)COCCOCCNC(=O)CC[C@H](NC(=O)CCCCCCCCCCCCCCCCCCC(=O)O)C(=O)O)NC(=O)[C@H](CCC(N)=O)NC(=O)[C@H](C)NC(=O)[C@@H](NC(=O)[C@H](CCCCN)NC(=O)[C@H](CC(=O)O)NC(=O)[C@H](CC(C)C)NC(=O)C(C)(C)NC(=O)[C@@H](NC(=O)[C@H](CO)NC(=O)[C@H](Cc1ccc(O)cc1)NC(=O)[C@H](CC(=O)O)NC(=O)[C@H](CO)NC(=O)[C@@H](NC(=O)[C@H](Cc1ccccc1)NC(=O)[C@@H](NC(=O)CNC(=O)[C@H](CCC(=O)O)NC(=O)CCCNC(=O)C1(c2cccnc2)CCC1)[C@@H](C)O)[C@@H](C)O)[C@@H](C)CC)[C@@H](C)CC)C(C)C)C(=O)N[C@@H](C)C(=O)NCC(=O)NCC(=O)N1CCC[C@H]1C(=O)N[C@@H](CO)C(=O)N[C@@H](CO)C(=O)NCC(=O)N[C@@H](C)C(=O)N1CCC[C@H]1C(=O)N1CCC[C@H]1C(=O)N1CCC[C@H]1C(=O)N[C@@H](CO)C(N)=O` [Compound 251] ({X24-GABA}-EGTFTSDYSI[Aib]LDKIAQK([AEEA-AEEA-γGlu-C20 diacid])AFVQWLIAGGPSSGAPPPS-NH2; C-terminus assumed), the Emax was found to be 91% on GLP-1 receptor and 92% on GIP receptor.
In the same order, the values of `CC[C@H](C)[C@H](NC(=O)[C@H](CC(C)C)NC(=O)[C@H](Cc1c[nH]c2ccccc12)NC(=O)[C@H](CCC(N)=O)NC(=O)[C@@H](NC(=O)[C@H](Cc1ccccc1)NC(=O)[C@H](C)NC(=O)[C@H](CCCCNC(=O)COCCOCCNC(=O)COCCOCCNC(=O)CC[C@H](NC(=O)CCCCCCCCCCCCCCCCCCC(=O)O)C(=O)O)NC(=O)[C@H](CCC(N)=O)NC(=O)[C@H](C)NC(=O)[C@@H](NC(=O)[C@H](CCCCN)NC(=O)[C@H](CC(=O)O)NC(=O)[C@H](CC(C)C)NC(=O)C(C)(C)NC(=O)[C@@H](NC(=O)[C@H](CO)NC(=O)[C@H](Cc1ccc(O)cc1)NC(=O)[C@H](CC(=O)O)NC(=O)[C@H](CO)NC(=O)[C@@H](NC(=O)[C@H](Cc1ccccc1)NC(=O)[C@@H](NC(=O)CNC(=O)[C@H](CCC(=O)O)NC(=O)CCCNC(=O)C(C)(C)n1ccc(C)n1)[C@@H](C)O)[C@@H](C)O)[C@@H](C)CC)[C@@H](C)CC)C(C)C)C(=O)N[C@@H](C)C(=O)NCC(=O)NCC(=O)N1CCC[C@H]1C(=O)N[C@@H](CO)C(=O)N[C@@H](CO)C(=O)NCC(=O)N[C@@H](C)C(=O)N1CCC[C@H]1C(=O)N1CCC[C@H]1C(=O)N1CCC[C@H]1C(=O)N[C@@H](CO)C(N)=O` [Compound 252] ({X83-GABA}-EGTFTSDYSI[Aib]LDKIAQK([AEEA-AEEA-γGlu-C20 diacid])AFVQWLIAGGPSSGAPPPS-NH2; C-terminus assumed) are 90% and 100%.
